The subject of data set [1] is HT-29. Kind of data set: Anti-necroptosis activity against human HT-29 cells assessed as inhibition of TSZ-induced necroptosis preincubated for 30 mins followed by compound addition and measured for 16 hrs by Cell-titer-glo assay. In kind it is functional, cell-based.
For data set [2], the system named is HT-29. Kind of data set: Cytotoxicity against human HT-29 cells assessed as reduction in cell viability measured for 16 to 24 hrs by Cell-titer-glo assay. In kind it is functional. As to conditions: time 16-24 hrs.
Data set [3] has as its system HT-29. The experiment in a line: Cytotoxicity against human HT-29 cells assessed as reduction in cell viability at 100 uM measured for 16 to 24 hrs by Cell-titer-glo assay. The class given is functional, cell-based. To be noted: time 16-24 hrs.
Data set [4] relates to L929. Kind of data set: Anti-necroptosis activity against TNFalpha-induced mouse L929 cells assessed as cell viability preincubated for 1 hr followed by TNFalpha stimulation and measured after 18 hrs by Cell-titer-glo assay. The class given is functional, cell-based.
The target in data set [5] is T1, Receptor-interacting serine/threonine-protein kinase 1 (Homo sapiens, UniProt Q13546).
T1 sequence (Q13546 whole entry): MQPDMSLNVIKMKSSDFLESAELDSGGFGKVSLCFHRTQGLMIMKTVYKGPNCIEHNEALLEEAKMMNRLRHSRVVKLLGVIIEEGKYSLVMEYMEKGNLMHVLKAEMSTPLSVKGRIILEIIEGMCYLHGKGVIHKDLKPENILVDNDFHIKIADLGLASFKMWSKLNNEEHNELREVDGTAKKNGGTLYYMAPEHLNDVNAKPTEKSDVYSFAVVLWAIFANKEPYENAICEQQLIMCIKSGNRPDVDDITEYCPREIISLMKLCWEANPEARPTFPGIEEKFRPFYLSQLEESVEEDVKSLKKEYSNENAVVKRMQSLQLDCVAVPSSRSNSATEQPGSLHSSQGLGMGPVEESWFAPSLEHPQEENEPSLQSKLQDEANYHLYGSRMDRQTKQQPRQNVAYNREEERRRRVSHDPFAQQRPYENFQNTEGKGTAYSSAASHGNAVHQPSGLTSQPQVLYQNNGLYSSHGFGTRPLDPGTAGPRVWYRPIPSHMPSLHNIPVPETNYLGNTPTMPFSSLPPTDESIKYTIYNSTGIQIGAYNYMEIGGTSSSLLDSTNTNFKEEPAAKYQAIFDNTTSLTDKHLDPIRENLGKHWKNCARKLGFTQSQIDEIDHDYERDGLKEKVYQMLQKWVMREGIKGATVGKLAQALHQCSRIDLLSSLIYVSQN
Kind of data set: Binding affinity to recombinant RIPK1 (unknown origin) assessed as dissociation constant by kinomescan assay.

The test system of data set [6] is HT-29. The experiment in a line: Anti-necroptosis activity against human HT-29 cells assessed as inhibition of TSZ-induced necroptosis pretreated with compound followed by TSZ induction and measured for 12 hrs by Cell-titer-glo assay. In kind it is functional, cell-based. As to conditions: dose 0.63-100 nM.
Data set [7] can be described thus: Half life in mouse. In kind it is ADME, organism-based. To be noted: in vivo.

This note sets out measurements from ChEMBL document CHEMBL5316334, “Structure-Based Design of Novel Alkynyl Thio-Benzoxazepinone Receptor-Interacting Protein Kinase-1 Inhibitors: Extending the Chemical Space from the Allosteric to ATP Binding Pockets” (J Med Chem, 2023).

Calls of active or inactive are those of the source. The calls are words filed in the database; no cut-off is given here.

`CN1C(=S)[C@@H](NC(=O)c2n[nH]c(Cc3ccccc3)n2)COc2ccc(C#Cc3ccccc3OC(F)(F)F)cc21`: in data set [1], the EC50 came to 0.0362 µM. The CC50 in data set [2] is over 100 µM. Also, in data set [3], the result was inactive.
Turning to `CN1C(=S)[C@@H](NC(=O)c2n[nH]c(Cc3ccccc3)n2)COc2ccc(C#Cc3ccc(C(F)(F)F)cc3)cc21`, the EC50 in data set [1] came to 0.0255 µM. Also, the half-maximal cytotoxic concentration (CC50) in data set [2] is over 100 µM. In data set [3], the result was inactive.
The like results for `CN1C(=S)[C@@H](NC(=O)c2n[nH]c(Cc3ccccc3)n2)COc2ccc(C#Cc3cccc(F)c3)cc21` were, in that order, 0.0226 µM, over 100 µM and “inactive”.
Turning to `CN1C(=O)[C@@H](NC(=O)c2n[nH]c(Cc3ccccc3)n2)COc2ccc(N3CC4(CCOCC4)C3)cc21`, the EC50 in data set [4] is under 0.001 µM.
For the compound `COc1cccc(C#Cc2ccc3c(c2)N(C)C(=S)[C@@H](NC(=O)c2n[nH]c(Cc4ccccc4)n2)CO3)c1`, in data set [1], the 50% effective concentration (EC50) came to 0.0111 µM. The CC50 in data set [2] was over 100 µM. Further, the result in data set [3] was inactive.
Regarding `COC(=O)c1ccc(C#Cc2ccc3c(c2)N(C)C(=S)[C@@H](NC(=O)c2n[nH]c(Cc4ccccc4)n2)CO3)cc1`, the 50% effective concentration (EC50) in data set [1] was 0.0058 µM. Besides, in data set [2], the CC50 was over 100 µM. Also, the result in data set [3] was inactive. Also, the Kd in data set [5] came to 0.083 µM.
As for `CN1C(=S)[C@@H](NC(=O)c2n[nH]c(Cc3ccccc3)n2)COc2ccc(C#Cc3ccccc3)cc21`, the EC50 in data set [1] came out at 0.0127 µM. Also, the CC50 in data set [2] was over 100 µM. Further, in data set [3], the result was inactive.
On to `CN1C(=S)[C@@H](NC(=O)c2n[nH]c(Cc3ccccc3)n2)COc2ccc(C#Cc3ccc(F)cc3)cc21`, for which, in data set [1], the EC50 is 0.0225 µM. Also, in data set [2], the half-maximal cytotoxic concentration (CC50) was over 100 µM. Also, the outcome in data set [3] was inactive.
For `CN1C(=S)[C@@H](NC(=O)c2n[nH]c(Cc3ccccc3)n2)COc2ccc(C#Cc3cccc(C(F)(F)F)c3)cc21` the same measures were 0.0478 µM, over 100 µM and “inactive”.
Consider `CN1C(=S)[C@@H](NC(=O)c2n[nH]c(Cc3ccccc3)n2)COc2ccc(C#Cc3ccc([N+](=O)[O-])cc3)cc21`, for which the concentration for a half-maximal effect (EC50) in data set [1] came to 0.0068 µM. The CC50 in data set [2] is over 100 µM. In addition, the outcome in data set [3] was inactive. For the same compound, the dissociation constant Kd in data set [5] stood at 0.15 µM.
In the case of `COC(=O)c1ccccc1C#Cc1ccc2c(c1)N(C)C(=S)[C@@H](NC(=O)c1n[nH]c(Cc3ccccc3)n1)CO2`, the concentration for a half-maximal effect (EC50) in data set [1] is 0.0329 µM. For the same compound, in data set [2], the CC50 was over 100 µM. The result in data set [3] was inactive.
`CN1C(=S)[C@@H](NC(=O)c2n[nH]c(Cc3ccccc3)n2)COc2ccc(C#CC3CC3)cc21`: the concentration for a half-maximal effect (EC50) in data set [1] was determined as 0.0087 µM. Also, the CC50 in data set [2] is over 100 µM. Moreover, the Kd in data set [5] stood at 0.04 µM.
Turning to `CN1C(=S)[C@@H](NC(=O)c2n[nH]c(Cc3ccccc3)n2)COc2ccc(C#CCc3ccccc3)cc21`, the EC50 in data set [1] turned out to be 0.0143 µM. Moreover, the cytotoxic concentration (CC50) in data set [2] is over 100 µM. In data set [3], the result was inactive.
For `CN1C(=S)[C@@H](NC(=O)c2n[nH]c(Cc3ccccc3)n2)COc2ccc(C#C[Si](C)(C)C)cc21` the same measures were 0.0205 µM, over 100 µM and “inactive”.
For `CN1C(=S)[C@@H](NC(=O)c2n[nH]c(Cc3ccccc3)n2)COc2ccc(C#Cc3ccc(OC(F)(F)F)cc3)cc21` the same measures were 0.0104 µM, over 100 µM and “inactive”.
On to `CN1C(=S)[C@@H](NC(=O)c2n[nH]c(Cc3ccccc3)n2)COc2ccc(C#Cc3cccc(Cl)c3)cc21`, for which the half-maximal effective concentration (EC50) in data set [1] is 0.0239 µM. In addition, the CC50 in data set [2] is over 100 µM. The outcome in data set [3] was inactive.
On to `CN1C(=S)[C@@H](NC(=O)c2n[nH]c(Cc3ccccc3)n2)COc2ccc(C#Cc3ccccc3C#N)cc21`, for which, in data set [1], the EC50 came to 0.0077 µM. Further, the cytotoxic concentration (CC50) in data set [2] is over 100 µM. Besides, the outcome in data set [3] was inactive. Besides, the Kd in data set [5] is 0.078 µM.
Regarding `CN1C(=S)[C@@H](NC(=O)c2n[nH]c(Cc3ccccc3)n2)COc2ccc(C#Cc3ccccc3C(F)(F)F)cc21`, the concentration for a half-maximal effect (EC50) in data set [1] worked out at 0.0413 µM. For the same compound, the CC50 in data set [2] is over 100 µM. For the same compound, in data set [3], the outcome was inactive.
As for `Cc1cccc(C#Cc2ccc3c(c2)N(C)C(=S)[C@@H](NC(=O)c2n[nH]c(Cc4ccccc4)n2)CO3)c1`, the EC50 in data set [1] came out at 0.0276 µM. Further, the 50% cytotoxic concentration (CC50) in data set [2] was over 100 µM. In data set [3], the result was inactive.
As for `CN1C(=S)[C@@H](NC(=O)c2n[nH]c(Cc3ccccc3)n2)COc2ccc(C#Cc3ccc(C#N)cc3)cc21`, in data set [1], the EC50 is 0.0063 µM. Besides, in data set [2], the CC50 was over 100 µM. Also, the result in data set [3] was inactive. Besides, in data set [5], the Kd turned out to be 0.092 µM.
Consider `COc1ccccc1C#Cc1ccc2c(c1)N(C)C(=S)[C@@H](NC(=O)c1n[nH]c(Cc3ccccc3)n1)CO2`, for which the EC50 in data set [1] worked out at 0.0107 µM. Further, the CC50 in data set [2] is over 100 µM. Also, the outcome in data set [3] was inactive.
Turning to `Cc1ccc(C#Cc2ccc3c(c2)N(C)C(=S)[C@@H](NC(=O)c2n[nH]c(Cc4ccccc4)n2)CO3)cc1`, the EC50 in data set [1] came to 0.0174 µM. The half-maximal cytotoxic concentration (CC50) in data set [2] is over 100 µM. Besides, the result in data set [3] was inactive. Besides, the Activity entry in data set [6] is “Dose-Dependent Effect”.
As for `COc1ccc(C#Cc2ccc3c(c2)N(C)C(=S)[C@@H](NC(=O)c2n[nH]c(Cc4ccccc4)n2)CO3)cc1`, the concentration for a half-maximal effect (EC50) in data set [1] was found to be 0.299 µM. The CC50 in data set [2] is over 100 µM. In addition, the result in data set [3] was inactive.
The like results for `CN1C(=S)[C@@H](NC(=O)c2n[nH]c(Cc3ccccc3)n2)COc2ccc(C#Cc3ccc(Cl)cc3)cc21` were, in that order, 0.0313 µM, over 100 µM and “inactive”.
The like results for `CN1C(=S)[C@@H](NC(=O)c2n[nH]c(Cc3ccccc3)n2)COc2ccc(C#Cc3ccccc3Cl)cc21` were, in that order, 0.014 µM, over 100 µM and “inactive”.
`COC(=O)c1cccc(C#Cc2ccc3c(c2)N(C)C(=S)[C@@H](NC(=O)c2n[nH]c(Cc4ccccc4)n2)CO3)c1`: in data set [1], the concentration giving a half-maximal response (EC50) was determined as 0.0108 µM. Also, in data set [2], the CC50 is over 100 µM. The outcome in data set [3] was inactive. The Kd in data set [5] turned out to be 0.16 µM.
For `CN1C(=S)[C@@H](NC(=O)c2n[nH]c(Cc3ccccc3)n2)COc2ccc(C#Cc3ccccc3F)cc21`, in data set [1], the EC50 was 0.0323 µM. Besides, the cytotoxic concentration (CC50) in data set [2] is over 100 µM. Besides, the outcome in data set [3] was inactive.
For `CN1C(=S)[C@@H](NC(=O)c2n[nH]c(Cc3ccccc3)n2)COc2ccc(C#Cc3ccccc3[N+](=O)[O-])cc21` the same measures were 0.0151 µM, over 100 µM and “inactive”.
On to `CN1C(=S)[C@@H](NC(=O)c2n[nH]c(Cc3ccccc3)n2)COc2ccc(C#Cc3cccc([N+](=O)[O-])c3)cc21`, for which, in data set [1], the concentration giving a half-maximal response (EC50) is 0.0092 µM. Also, the CC50 in data set [2] is over 100 µM. For the same compound, the outcome in data set [3] was inactive. Further, in data set [5], the Kd was determined as 0.23 µM.
Regarding `CN1C(=O)C(Cc2c[nH]c3ccccc23)NC1=S` (stereo unspecified) [NECROSTATIN], the half-life in data set [7] was under 5 min.
With `CN1C(=O)[C@@H](NC(=O)c2nnc(Cc3ccccc3)[nH]2)COc2ccc(C#CC(C)(C)O)cc21` [OCADUSERTIB], the EC50 in data set [4] was under 0.001 µM.
With `CN1C(=S)[C@@H](NC(=O)c2n[nH]c(Cc3ccccc3)n2)COc2ccccc21`, the CC50 in data set [2] is over 100 µM.
As to `Cc1ccccc1C#Cc1ccc2c(c1)N(C)C(=S)[C@@H](NC(=O)c1n[nH]c(Cc3ccccc3)n1)CO2`, the EC50 in data set [1] worked out at 0.0233 µM. The CC50 in data set [2] was over 100 µM. Also, in data set [3], the result was inactive.
In the case of `CN1C(=S)[C@@H](NC(=O)c2n[nH]c(Cc3ccccc3)n2)COc2ccc(C#Cc3cccc(OC(F)(F)F)c3)cc21`, in data set [1], the EC50 was found to be 0.027 µM. For the same compound, in data set [2], the CC50 was over 100 µM. Besides, the result in data set [3] was inactive.

In general, EC50 refers to the midpoint of the concentration-response curve. One may read the CC50 as the concentration at which the toxic effect on the cells reaches its halfway point. As a reminder, the Kd is the constant that tells how readily two partners part at equilibrium. As usually defined, the half-life is the time in which the quantity being followed falls by half.
